The results in this text go back to patent publication US20240327412A1, “FACTOR XIIA INHIBITORS” (KALVISTA PHARMACEUTICALS LIMITED, priority 2021, published 2024).

This experiment concerns the target T1, Human Factor XIIa (Homo sapiens, UniProt P00748).
T1 construct: Proteolytic cleavage of FXII to heavy and light chains of FXIIa dramatically increases catalytic activity; purchased Enzyme Research Laboratories
T1 sequence (P00748 373-615 limits assumed): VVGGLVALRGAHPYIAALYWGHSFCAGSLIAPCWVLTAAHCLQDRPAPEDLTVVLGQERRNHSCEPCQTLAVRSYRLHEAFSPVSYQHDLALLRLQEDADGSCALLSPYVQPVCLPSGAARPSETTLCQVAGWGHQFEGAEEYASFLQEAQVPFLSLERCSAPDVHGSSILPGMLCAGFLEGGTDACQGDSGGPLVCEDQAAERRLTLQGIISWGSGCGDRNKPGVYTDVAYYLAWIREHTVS
T1 sequence (P00748 20-372 partner limits assumed): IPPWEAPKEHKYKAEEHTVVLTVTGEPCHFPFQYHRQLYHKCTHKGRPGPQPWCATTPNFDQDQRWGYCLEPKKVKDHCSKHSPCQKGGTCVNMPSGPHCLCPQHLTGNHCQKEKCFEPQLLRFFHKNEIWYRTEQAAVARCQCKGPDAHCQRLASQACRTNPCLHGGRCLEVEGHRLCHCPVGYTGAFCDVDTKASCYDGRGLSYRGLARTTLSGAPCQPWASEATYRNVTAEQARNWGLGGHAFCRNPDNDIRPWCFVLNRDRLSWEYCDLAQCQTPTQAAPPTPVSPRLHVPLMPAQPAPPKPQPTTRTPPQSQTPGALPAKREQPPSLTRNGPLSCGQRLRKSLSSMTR
Description: Determination of FXIIa inhibition (fluorogenic substrate H-DPro-Phe-Arg-AFC, IC50 assay). The experiment is classed as biochemical. Particulars: substrate at Km concentration, 25° C.; category scale; read-out: Human FXII IC50 (nm). The method, then:
In vitro inhibition of Factor XIIa was determined using an IC50 assay based on standard literature methods (see e.g Baeriswyl et al., ACS Chem. Biol., 2015, 10 (8) 1861; Bouckaert et al., European Journal of Medicinal Chemistry 110 (2016) 181). Human Factor XIIa (Enzyme Research Laboratories) was incubated at 25° C. with the fluorogenic substrate H-DPro-Phe-Arg-AFC (Peptide Protein Science) and various concentrations of the test compound. Protease activity was measured by monitoring the accumulation of liberated fluorescence from the substrate over 5 min at 25° C. The linear rate of fluorescence increase per minute was expressed as percentage (%) activity. The Km for the cleavage of the substrate by FXIIa was determined by standard transformation of the Michaelis-Menten equation. The compound inhibitor assays were performed at substrate Km concentration. IC50 values were calculated as the concentration of inhibitor giving 50% inhibition (IC50) of the uninhibited enzyme activity (100%).
For `Cc1ccc(OCC23CCOC(CNc4cccc5c(N)nccc45)(C2)C3)nc1` [Example 10956, N5-((5-(((5-methylpyridin-2-yl)oxy)methyl)-2-oxabicyclo[3.1.1]heptan-1-yl)methyl)isoquinoline-1,5-diamine], the IC50 (as a rule, the concentration that gives 50% inhibition) was 1000 to 3000 nM.

For the molecule `Cn1ccc(OCC23CN(c4nc5ccccc5o4)C(CNc4cccc5c(N)nccc45)(C2)C3)cc1=O` [Example 12057, 4-((1-(((1-Aminoisoquinolin-5-yl)amino)methyl)-2-(benzo[d]oxazol-2-yl)-2-azabicyclo[2.1.1]hexan-4-yl)methoxy)-1-methylpyridin-2(1H)-one], the IC50 was in the range of 1 to 10 nM.

Take `Nc1nccc2c(NCC34CC(COc5ccc6nncn6c5)(CO3)C4)cccc12` [Example 6634, N5-((4-(([1,2,4]triazolo[4,3-a]pyridin-6-yloxy)methyl)-2-oxabicyclo[2.1.1]hexan-1-yl)methyl)isoquinoline-1,5-diamine]: the IC50 fell in the range of 1000 to 3000 nM.

Take `Cn1ccc(OCC23CC(CNc4cccc5c(N)nccc45)(CN2C(=O)CCc2ccccc2)C3)cc1=O` [Example 13008, 4-((4-(((1-aminoisoquinolin-5-yl)amino)methyl)-2-(3-phenylpropanoyl)-2-azabicyclo[2.1.1]hexan-1-yl)methoxy)-1-methylpyridin-2(1H)-one]: the IC50 fell in the range of 300 to 1000 nM.

On to `Cn1ccc(OCC23CN(c4cccnc4)C(CNc4cccc5c(N)nccc45)(C2)C3)cc1=O` [Example 12064, 4-((1-(((1-aminoisoquinolin-5-yl)amino)methyl)-2-(pyridin-3-yl)-2-azabicyclo[2.1.1]hexan-4-yl)methoxy)-1-methylpyridin-2(1H)-one], for which the IC50 was 10 to 100 nM.

Turning to `Cn1ccc(OCC23CN(C(=O)CCc4cccc(C(=O)O)c4)C(CNc4cccc5c(N)nccc45)(C2)C3)cc1=O` [Example 12051, 3-(3-(1-(((1-aminoisoquinolin-5-yl)amino)methyl)-4-(((1-methyl-2-oxo-1,2-dihydropyridin-4-yl)oxy)methyl)-2-azabicyclo[2.1.1]hexan-2-yl)-3-oxopropyl)benzoic acid], the concentration for half-maximal inhibition (IC50) was in the range of 10 to 100 nM.

Regarding `Cn1ccc(OCC23CN(C(=O)OC(C)(C)C)C(CNc4cccc5c(N)nccc45)(C2)C3)cc1=O` [Example 12027, tert-butyl 1-(((1-aminoisoquinolin-5-yl)amino)methyl)-4-(((1-methyl-2-oxo-1,2-dihydropyridin-4-yl)oxy)methyl)-2-azabicyclo[2.1.1]hexane-2-carboxylate], the IC50 lay within 100 to 300 nM.

On to `Cn1cc(Cl)c(OCC23CCOC(CNc4cccc5c(N)nccc45)(C2)C3)cc1=O` [Example 10933, 4-((1-(((1-aminoisoquinolin-5-yl)amino)methyl)-2-oxabicyclo[3.1.1]heptan-5-yl)methoxy)-5-chloro-1-methylpyridin-2(1H)-one], for which the IC50 was in the range of 1000 to 3000 nM.

Regarding `CN(Cc1ccccc1)C(=O)N1CC2(CNc3cccc4c(N)nccc34)CC1(COc1ccn(C)c(=O)c1)C2` [Example 13011, 4-(((1-aminoisoquinolin-5-yl)amino)methyl)-N-benzyl-N-methyl-1-(((1-methyl-2-oxo-1,2-dihydropyridin-4-yl)oxy)methyl)-2-azabicyclo[2.1.1]hexane-2-carboxamide], the IC50 is 300 to 1000 nM.

On to `COc1cccc(CCC(=O)N2CC3(COc4ccn(C)c(=O)c4)CC2(CNc2cccc4c(N)nccc24)C3)c1` [Example 12042, 4-((1-(((1-aminoisoquinolin-5-yl)amino)methyl)-2-(3-(3-methoxyphenyl)propanoyl)-2-azabicyclo[2.1.1]hexan-4-yl)methoxy)-1-methylpyridin-2(1H)-one], for which the IC50 fell in the range of 10 to 100 nM.

Regarding `Cn1c(OCC23CCOC(CNc4cccc5c(N)nccc45)(C2)C3)cccc1=O` [Example 10945, 6-((1-(((1-aminoisoquinolin-5-yl)amino)methyl)-2-oxabicyclo[3.1.1]heptan-5-yl)methoxy)-1-methylpyridin-2(1H)-one], the IC50 lay in the range of 3000 to 10000 nM.

For the molecule `CC1(C)NC(=O)c2ccc(OCC34COC(CNc5cccc6c(N)nccc56)(C3)C4)cc21` [Example 6650, 5-((1-(((1-aminoisoquinolin-5-yl)amino)methyl)-2-oxabicyclo[2.1.1]hexan-4-yl)methoxy)-3,3-dimethylisoindolin-1-one], the IC50 lay within 100 to 300 nM.

As for `COc1ccncc1OCC12CCOC(CNc3cccc4c(N)nccc34)(C1)C2` [Example 10954, N5-((5-(((4-methoxypyridin-3-yl)oxy)methyl)-2-oxabicyclo[3.1.1]heptan-1-yl)methyl)isoquinoline-1,5-diamine], the IC50 was in the range of 3000 to 10000 nM.

Consider `Cc1cnc2cc(OCC34CCOC(CNc5cccc6c(N)nccc56)(C3)C4)ccn12` [Example 10930, N5-((5-(((3-methylimidazo[1,2-a]pyridin-7-yl)oxy)methyl)-2-oxabicyclo[3.1.1]heptan-1-yl)methyl)isoquinoline-1,5-diamine], for which the IC50 was in the range of 10 to 100 nM.

As for `Nc1nccc2c(NCC34CC(COc5ccon5)(CCO3)C4)cccc12` [Example 10936, N5-((5-((isoxazol-3-yloxy)methyl)-2-oxabicyclo[3.1.1]heptan-1-yl)methyl)isoquinoline-1,5-diamine], the IC50 lay within 3000 to 10000 nM.

As to `Cn1ccc(OCC23CC(CNc4cccc5c(N)nccc45)(CN2C(=O)Nc2ccccc2)C3)cc1=O` [Example 13019, 4-(((1-aminoisoquinolin-5-yl)amino)methyl)-1-(((1-methyl-2-oxo-1,2-dihydropyridin-4-yl)oxy)methyl)-N-phenyl-2-azabicyclo[2.1.1]hexane-2-carboxamide], the IC50 fell in the range of 300 to 1000 nM.

As for `Nc1nccc2c(NCC34CC(Cn5cccn5)(CO3)C4)cccc12` [Example 6645, N5-((4-((1H-pyrazol-1-yl)methyl)-2-oxabicyclo[2.1.1]hexan-1-yl)methyl)isoquinoline-1,5-diamine], the IC50 lay in the range of 10000 to 40000 nM.

With `Nc1nccc2c(NCC34CC(CN5CCCC5=O)(CO3)C4)cccc12` [Example 6649, 1-((1-(((1-aminoisoquinolin-5-yl)amino)methyl)-2-oxabicyclo[2.1.1]hexan-4-yl)methyl)pyrrolidin-2-one], the IC50 lay within 10000 to 40000 nM.

Regarding `Nc1nccc2c(NCC34CC(COc5cccnc5)(CCO3)C4)cccc12` [Example 10968, N5-((5-((pyridin-3-yloxy)methyl)-2-oxabicyclo[3.1.1]heptan-1-yl)methyl)isoquinoline-1,5-diamine], the IC50 lay within 3000 to 10000 nM.

In the case of `Nc1nccc2c(NCC34CC(COc5ccc6c(c5)CNC6=O)(C3)C4)cccc12` [Example 1133, 5-((3-(((1-aminoisoquinolin-5-yl)amino)methyl)bicyclo[1.1.1]pentan-1-yl)methoxy)isoindolin-1-one], the IC50 was in the range of 100 to 300 nM.

On to `Nc1nccc2c(NCC34CC(COc5ccc6ncc(C(F)F)n6c5)(CO3)C4)cccc12` [Example 6644, 5-N-[[4-[[3-(Difluoromethyl)imidazo[1,2-a]pyridin-6-yl]oxymethyl]-2-oxabicyclo[2.1.1]hexan-1-yl]methyl]isoquinoline-1,5-diamine], for which the concentration for half-maximal inhibition (IC50) is 300 to 1000 nM.

For the molecule `CN1CCc2cc(OCC34COC(CNc5cccc6c(N)nccc56)(C3)C4)ccc2C1=O` [Example 6640, 6-((1-(((1-aminoisoquinolin-5-yl)amino)methyl)-2-oxabicyclo[2.1.1]hexan-4-yl)methoxy)-2-methyl-3,4-dihydroisoquinolin-1(2H)-one], the IC50 was in the range of 100 to 300 nM.

With `Cc1cc(OCC23CC(CNc4cccc5c(N)nccc45)(C2)C3)cc(=O)n1C` [Example 1134, 4-((3-(((1-aminoisoquinolin-5-yl)amino)methyl)bicyclo[1.1.1]pentan-1-yl)methoxy)-1,6-dimethylpyridin-2(1H)-one], the IC50 was 100 to 300 nM.

`Cn1ccc(OCC23CC(CNc4cccc5c(N)nccc45)(CN2C(=O)Oc2ccccc2)C3)cc1=O` [Example 13006, phenyl 4-(((1-aminoisoquinolin-5-yl)amino)methyl)-1-(((1-methyl-2-oxo-1,2-dihydropyridin-4-yl)oxy)methyl)-2-azabicyclo[2.1.1]hexane-2-carboxylate]: the IC50 was 10 to 100 nM.

`CN(Cc1ccccc1)C(=O)N1CC2(COc3ccn(C)c(=O)c3)CC1(CNc1cccc3c(N)nccc13)C2` [Example 12041, 1-[[(1-Amino-5-isoquinolyl)amino]methyl]-N-benzyl-N-methyl-4-[(1-methyl-2-oxo-4-pyridyl)oxymethyl]-2-azabicyclo[2.1.1]hexane-2-carboxamide]: the IC50 was in the range of 1 to 10 nM.
